In brackets after ≈: the same amount, converted by molar mass. Structures can show the parent of a compound that is named as a salt. Where two headings read alike, the source gives them in different places. Each block holds one compound with its values, some of them ahead of it.
Experiments:
P. aeruginosa PAO1 [1] = assay: MIC assay in the presence of a bacterial efflux pump inhibitor (EPI); format: cell-based, Pseudomonas aeruginosa; conditions: with 12.5 ug/ml of EPI (2S,4R)-4-(ammoniomethyl)-2-((6-(4-fluorophenyl)-1H-indole-2-carboxamido)methyl)pyrrolidin-1-ium, MIC90
Protocol: (§1) The ability of a compound to produce an antibiotic effect can be determined using a method as described in Example 21. Data for representative compounds used in combination with the efflux pump inhibitor [(2S,4R)-4-(ammoniomethyl)-2-((6-(4-fluorophenyl)-1H-indole-2-carboxamido)methyl)pyrrolidin-1-ium] is shown in Table 1.
(§2) MIC assays were conducted in accordance with Clinical and Laboratory Standards Institute (CLSI) guidelines for broth microdilution. A 96-well plate containing cation-adjusted Mueller-Hinton (CAMH broth with 2-fold serial dilution of compounds was inoculated with log-phase bacterial at 5×10^5 CFU/mL. The final volume in each well was 100 μL. Each compound was tested in duplicate. The microtiter plates were incubated in an aerobic environment for 18 hours at 37° C. Then the bacterial growth was tested by reading the plate with a VersaMax plate reader (Molecular Devices, Inc.) at 600 nm. The MIC was defined as the lowest compound concentration that inhibited 90% of bacteria growth.
(§3) Pseudomonas aeruginosa PAO1
(§4) The EPI assay for the purposes of these studies represents a MIC assay in which the MIC of the antibiotic against the bacteria is tested in the presence of an experimental efflux pump inhibitor (EPI). The highest concentration of the EPI present in the assay typically is ½ of the intrinsic MIC of the compound. If the intrinsic MIC of the EPI is greater than 100 μg/mL, the EPI assay was tested with 50 μg/mL. Using serial dilutions of the EPI, its enhancement of antibiotic activity was then evaluated. The relative EPI activity was decided by comparing the MIC of the antibiotic in the presence of the EPI compound with the intrinsic MIC of the antibiotic alone. For comparative purposes, we generally used EPIs at concentration of 12.5 and 6.25 μg/ml against varying concentration of our test antibiotic.

P. aeruginosa PAO1 [2] = assay: Intrinsic MIC assay (CLSI broth microdilution); format: cell-based, Pseudomonas aeruginosa; conditions: for MIC: Pseudomonas aeruginosa, read-out: Antibiotic Activity Against P. aeruginosa: Intrinsic MIC
Protocol: as §2, §3

E. coli 25922 [3] = assay: MIC assay in the presence of a bacterial efflux pump inhibitor (EPI); format: cell-based, Escherichia coli; conditions: with 12.5 ug/ml of EPI (2S,4R)-4-(ammoniomethyl)-2-((6-(4-fluorophenyl)-1H-indole-2-carboxamido)methyl)pyrrolidin-1-ium, MIC90
Protocol: as §1, §2
(§5) Escherichia coli ATCC 25922
as §4

E. coli 25922 [4] = assay: Intrinsic MIC assay (CLSI broth microdilution); format: cell-based, Escherichia coli; conditions: for MIC: read-out: Antibiotic Activity Against E. coli: Intrinsic MIC
Protocol: as §2, §5

MreB = conditions: P. aeruginosa strains with defective efflux transporters; cited from earlier work
[5] = molecular target: T1, MexAB-OprM efflux transporter (Pseudomonas aeruginosa, UniProt P52002); conditions: wild-type P. aeruginosa; cited from earlier work
T1 construct: MexAB-OprM efflux transporter present in wild-type P. aeruginosa; endogenous in cells; host or cells: wild-type P. aeruginosa
T1 sequence (Q51487 18-485): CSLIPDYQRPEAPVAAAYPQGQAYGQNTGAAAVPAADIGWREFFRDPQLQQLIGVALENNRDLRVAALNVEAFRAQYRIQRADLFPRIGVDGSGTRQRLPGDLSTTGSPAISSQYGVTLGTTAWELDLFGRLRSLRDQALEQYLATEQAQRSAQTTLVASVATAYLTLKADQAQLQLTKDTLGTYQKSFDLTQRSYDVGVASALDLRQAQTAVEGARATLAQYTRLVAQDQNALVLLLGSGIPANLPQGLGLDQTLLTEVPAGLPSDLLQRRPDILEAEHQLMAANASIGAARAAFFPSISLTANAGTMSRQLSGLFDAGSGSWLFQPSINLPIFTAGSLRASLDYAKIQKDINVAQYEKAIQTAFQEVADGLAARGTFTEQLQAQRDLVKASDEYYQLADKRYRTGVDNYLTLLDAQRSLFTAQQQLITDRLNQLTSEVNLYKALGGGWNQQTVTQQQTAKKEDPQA
T1 sequence (P52477 24-383, further chain): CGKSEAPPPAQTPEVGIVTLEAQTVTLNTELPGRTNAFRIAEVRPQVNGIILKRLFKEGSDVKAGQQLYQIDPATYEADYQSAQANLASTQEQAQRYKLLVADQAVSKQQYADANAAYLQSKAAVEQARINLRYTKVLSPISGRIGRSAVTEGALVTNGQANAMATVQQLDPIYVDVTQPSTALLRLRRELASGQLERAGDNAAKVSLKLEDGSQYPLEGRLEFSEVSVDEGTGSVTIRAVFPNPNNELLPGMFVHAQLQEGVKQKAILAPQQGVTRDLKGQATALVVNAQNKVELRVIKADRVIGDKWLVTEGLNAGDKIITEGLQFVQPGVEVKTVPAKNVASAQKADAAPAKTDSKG
T1 sequence (P52002 whole entry): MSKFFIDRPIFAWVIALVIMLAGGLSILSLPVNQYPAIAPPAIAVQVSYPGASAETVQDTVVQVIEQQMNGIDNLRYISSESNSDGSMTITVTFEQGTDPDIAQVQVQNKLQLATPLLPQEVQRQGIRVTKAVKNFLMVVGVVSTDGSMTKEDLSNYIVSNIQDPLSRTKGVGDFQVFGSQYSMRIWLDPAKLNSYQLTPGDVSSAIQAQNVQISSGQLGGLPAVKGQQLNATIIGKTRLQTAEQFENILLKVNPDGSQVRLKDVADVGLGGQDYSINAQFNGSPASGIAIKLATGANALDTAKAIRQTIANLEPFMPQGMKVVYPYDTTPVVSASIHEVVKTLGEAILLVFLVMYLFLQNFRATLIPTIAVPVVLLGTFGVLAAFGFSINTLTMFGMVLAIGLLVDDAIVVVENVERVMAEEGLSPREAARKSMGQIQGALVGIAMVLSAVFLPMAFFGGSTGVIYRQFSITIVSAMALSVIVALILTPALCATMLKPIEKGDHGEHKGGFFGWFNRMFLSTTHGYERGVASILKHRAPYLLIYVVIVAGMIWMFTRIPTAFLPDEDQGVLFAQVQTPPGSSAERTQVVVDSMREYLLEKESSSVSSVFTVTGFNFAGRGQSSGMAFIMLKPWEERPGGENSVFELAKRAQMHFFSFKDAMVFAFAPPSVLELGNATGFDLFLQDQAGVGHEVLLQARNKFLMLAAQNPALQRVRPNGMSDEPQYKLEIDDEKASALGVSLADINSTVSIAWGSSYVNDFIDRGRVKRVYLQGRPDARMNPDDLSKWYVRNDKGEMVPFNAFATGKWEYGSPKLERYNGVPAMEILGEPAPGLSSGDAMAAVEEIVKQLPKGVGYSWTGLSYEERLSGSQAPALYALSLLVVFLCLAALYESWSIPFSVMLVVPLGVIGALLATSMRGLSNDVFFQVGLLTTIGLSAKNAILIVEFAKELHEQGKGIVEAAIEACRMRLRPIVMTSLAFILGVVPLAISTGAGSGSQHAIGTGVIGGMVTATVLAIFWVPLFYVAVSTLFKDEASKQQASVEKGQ

[6] = 18 h, P. aeruginosa PAO1, without EPI, MIC90
[7] = Escherichia coli, 18 h, E. coli 25922, without EPI, MIC90

Compound: Cl.N=C(N)SCc1ccc(Cl)c(Cl)c1 [Example 1, 3,4-Dichlorobenzyl Carbamimidothioate Hydrobromide]
Antibiotic Activity Against P. aeruginosa: MIC with EPI (Enhancement) (P. aeruginosa PAO1 [1]): 0.5 µg/mL
MIC (P. aeruginosa PAO1 [2]; [6]): > 256 µg/mL
Antibiotic Activity Against E. coli: MIC with EPI (Enhancement) (E. coli 25922 [3]): 4 µg/mL
MIC (E. coli 25922 [4]; [7]): 64 µg/mL

Compound: N=C(N)SCc1cccc(Br)c1 [Example 8, 3-bromobenzyl Carbamimidothioate Hydrobromide]
Antibiotic Activity Against P. aeruginosa: MIC with EPI (Enhancement) (P. aeruginosa PAO1 [1]): >256 µg/mL
MIC (P. aeruginosa PAO1 [2]; PAO1, 18 h): > 256 µg/mL
Antibiotic Activity Against E. coli: MIC with EPI (Enhancement) (E. coli 25922 [3]): >256 µg/mL
MIC (E. coli 25922 [4]; Escherichia coli, 25922, 18 h): > 256 µg/mL

Compound: Br.N=C(N)SCc1ccc(-c2ccc(F)cc2)cc1 [Example 9, (4′-fluoro-[1,1′-biphenyl]-4-yl)methyl Carbamimidothioate Hydrobromide]
Antibiotic Activity Against P. aeruginosa: MIC with EPI (Enhancement) (P. aeruginosa PAO1 [1]): >256 µg/mL
MIC (P. aeruginosa PAO1 [2]; [6]): > 256 µg/mL
Antibiotic Activity Against E. coli: MIC with EPI (Enhancement) (E. coli 25922 [3]): 64 µg/mL
MIC (E. coli 25922 [4]; [7]): 64 µg/mL

Compound: N=C(N)SCc1cccc(-c2ccc(F)cc2)c1 [Example 10, (4′-fluoro-[1,1′-biphenyl]-3-yl)methyl Carbamimidothioate Hydrobromide]
Antibiotic Activity Against P. aeruginosa: MIC with EPI (Enhancement) (P. aeruginosa PAO1 [1]): >256 µg/mL
MIC (P. aeruginosa PAO1 [2]; [6]): > 256 µg/mL
Antibiotic Activity Against E. coli: MIC with EPI (Enhancement) (E. coli 25922 [3]): 64 µg/mL
MIC (E. coli 25922 [4]; [7]): 64 µg/mL

Compound: N=C(N)SCc1cccc2ccccc12 [Example 11, naphthalen-1-ylmethyl Carbamimidothioate Hydrobromide]
Antibiotic Activity Against P. aeruginosa: MIC with EPI (Enhancement) (P. aeruginosa PAO1 [1]): >256 µg/mL
MIC (P. aeruginosa PAO1 [2]; [6]): > 256 µg/mL
Antibiotic Activity Against E. coli: MIC with EPI (Enhancement) (E. coli 25922 [3]): >256 µg/mL
MIC (E. coli 25922 [4]; [7]): > 256 µg/mL

Compound: Cl.N=C(N)SCc1ccc2ccccc2c1 [Example 12, naphthalen-2-ylmethyl Carbamimidothioate Hydrobromide]
Antibiotic Activity Against P. aeruginosa: MIC with EPI (Enhancement) (P. aeruginosa PAO1 [1]): 4 µg/mL
MIC (P. aeruginosa PAO1 [2]; [6]): > 256 µg/mL
Antibiotic Activity Against E. coli: MIC with EPI (Enhancement) (E. coli 25922 [3]): 16 µg/mL
MIC (E. coli 25922 [4]; [7]): > 256 µg/mL

Compound: CN1CN=C(SCc2ccc3ccccc3c2)NC1 [Example 13, 3-methyl-6-((naphthalen-2-ylmethyl)thio)-1,2,3,4-tetrahydro-1,3,5-triazine]
Antibiotic Activity Against P. aeruginosa: MIC with EPI (Enhancement) (P. aeruginosa PAO1 [1]): 16 µg/mL
MIC (P. aeruginosa PAO1 [2]; [6]): > 256 µg/mL
Antibiotic Activity Against E. coli: MIC with EPI (Enhancement) (E. coli 25922 [3]): 16 µg/mL
MIC (E. coli 25922 [4]; [7]): > 256 µg/mL

Compound: N=C(N)SCc1ccc(C(F)(F)F)nc1 [Example 14, (6-(trifluoromethyl)pyridin-3-yl)methyl Carbamimidothioate Hydrochloride]
Antibiotic Activity Against P. aeruginosa: MIC with EPI (Enhancement) (P. aeruginosa PAO1 [1]): >256 µg/mL
MIC (P. aeruginosa PAO1 [2]; PAO1, 18 h): > 256 µg/mL
Antibiotic Activity Against E. coli: MIC with EPI (Enhancement) (E. coli 25922 [3]): >256 µg/mL
MIC (E. coli 25922 [4]; Escherichia coli, 25922, 18 h): > 256 µg/mL

Compound: N=C(N)SCc1ccc2sccc2c1 [Example 16, Benzo[b]thiophen-5-ylmethyl Carbamimidothioate Hydrobromide]
Antibiotic Activity Against P. aeruginosa: MIC with EPI (Enhancement) (P. aeruginosa PAO1 [1]): 4 µg/mL
MIC (P. aeruginosa PAO1 [2]; [6]): > 256 µg/mL
Antibiotic Activity Against E. coli: MIC with EPI (Enhancement) (E. coli 25922 [3]): >256 µg/mL
MIC (E. coli 25922 [4]; [7]): > 256 µg/mL

Compound: CC(C)(C)OC(=O)n1ccc2cc(CSC(=N)N)ccc21 [Example 17, t-Butyl 5-((carbamimidoylthio)methyl)-1H-indole-1-carboxylate]
Antibiotic Activity Against P. aeruginosa: MIC with EPI (Enhancement) (P. aeruginosa PAO1 [1]): >256 µg/mL
MIC (P. aeruginosa PAO1 [2]; [6]): > 256 µg/mL
Antibiotic Activity Against E. coli: MIC with EPI (Enhancement) (E. coli 25922 [3]): 128 µg/mL
MIC (E. coli 25922 [4]; [7]): > 128 µg/mL

Compound: N=C(N)SCc1ccc2ncccc2c1 [Example 18, quinolin-6-ylmethyl Carbamimidothioate Hydrobromide]
Antibiotic Activity Against P. aeruginosa: MIC with EPI (Enhancement) (P. aeruginosa PAO1 [1]): >256 µg/mL
MIC (P. aeruginosa PAO1 [2]; [6]): > 256 µg/mL
Antibiotic Activity Against E. coli: MIC with EPI (Enhancement) (E. coli 25922 [3]): >256 µg/mL
MIC (E. coli 25922 [4]; [7]): > 256 µg/mL

Compound: Br.N=C(N)SCc1cccc2cccnc12 [Example 19, quinolin-8-ylmethyl Carbamimidothioate Hydrobromide]
Antibiotic Activity Against P. aeruginosa: MIC with EPI (Enhancement) (P. aeruginosa PAO1 [1]): >256 µg/mL
MIC (P. aeruginosa PAO1 [2]; [6]): > 256 µg/mL
Antibiotic Activity Against E. coli: MIC with EPI (Enhancement) (E. coli 25922 [3]): >256 µg/mL
MIC (E. coli 25922 [4]; [7]): > 256 µg/mL

Compound: N=C(N)SCc1ccc(Cl)c(Cl)c1 [Example A22, S-(3,4-Dichlorobenzyl)isothiourea]
MreB inhibition (MreB): effective MreB inhibitor
efflux transporter substrate [5]: substrate for the MexAB-OprM efflux transporter

Compound: Isoquinolin-5-ylmethyl Carbamimidothioate Hydrobromide [Example 20]
Antibiotic Activity Against P. aeruginosa: MIC with EPI (Enhancement) (P. aeruginosa PAO1 [1]): >256 µg/mL
Antibiotic Activity Against P. aeruginosa: Intrinsic MIC (P. aeruginosa PAO1 [2]; P. aeruginosa PAO1, without EPI, MIC90): >256 μ/mL
Antibiotic Activity Against E. coli: MIC with EPI (Enhancement) (E. coli 25922 [3]): >256 µg/mL
Antibiotic Activity Against E. coli: Intrinsic MIC (E. coli 25922 [4]; E. coli 25922, without EPI, MIC90): >256 µg/mL

Second part, the compound after the results:

Antibiotic Activity Against P. aeruginosa: MIC with EPI (Enhancement) (P. aeruginosa PAO1 [1]): 1.0 µg/mL
MIC (P. aeruginosa PAO1 [2]; [6]): > 256 µg/mL
Antibiotic Activity Against E. coli: MIC with EPI (Enhancement) (E. coli 25922 [3]): >256 µg/mL
MIC (E. coli 25922 [4]; [7]): > 256 µg/mL
Compound: Br.N=C(N)SCc1ccc(Cl)cc1Cl [Example 2, 2,4-Dichlorobenzyl Carbamimidothioate Hydrobromide]

Antibiotic Activity Against P. aeruginosa: MIC with EPI (Enhancement) (P. aeruginosa PAO1 [1]): 256 µg/mL
MIC (P. aeruginosa PAO1 [2]; [6]): > 256 µg/mL
Antibiotic Activity Against E. coli: MIC with EPI (Enhancement) (E. coli 25922 [3]): 256 µg/mL
MIC (E. coli 25922 [4]; [7]): 256 µg/mL
Compound: Br.CC(C)(C)c1ccc(CSC(=N)N)cc1 [Example 3, 4-(t-Butyl)Benzyl Carbamimidothioate Hydrobromide]

Antibiotic Activity Against P. aeruginosa: MIC with EPI (Enhancement) (P. aeruginosa PAO1 [1]): >256 µg/mL
MIC (P. aeruginosa PAO1 [2]; [6]): > 256 µg/mL
Antibiotic Activity Against E. coli: MIC with EPI (Enhancement) (E. coli 25922 [3]): 256 µg/mL
MIC (E. coli 25922 [4]; [7]): 256 µg/mL (≈ 1030 µM)
Compound: N=C(N)SCCc1ccc(Cl)c(Cl)c1 [Example 4, 3,4-dichlorophenethyl carbamimidothioate]

Antibiotic Activity Against P. aeruginosa: MIC with EPI (Enhancement) (P. aeruginosa PAO1 [1]): 4.0 µg/mL
MIC (P. aeruginosa PAO1 [2]; [6]): > 256 µg/mL
Antibiotic Activity Against E. coli: MIC with EPI (Enhancement) (E. coli 25922 [3]): 256 µg/mL
MIC (E. coli 25922 [4]; [7]): 256 µg/mL
Compound: Br.CC(SC(=N)N)c1ccc(Cl)c(Cl)c1 (stereo not shown) [Example 5, 1-(3,4-Dichlorophenyl)ethyl Carbamimidothioate Hydrobromide]

Antibiotic Activity Against P. aeruginosa: MIC with EPI (Enhancement) (P. aeruginosa PAO1 [1]): 4.0 µg/mL
MIC (P. aeruginosa PAO1 [2]; [6]): > 256 µg/mL
Antibiotic Activity Against E. coli: MIC with EPI (Enhancement) (E. coli 25922 [3]): >256 µg/mL
MIC (E. coli 25922 [4]; [7]): > 256 µg/mL
Compound: CNC(=N)SCc1ccc(Cl)c(Cl)c1.Cl [Example 6, 3,4-dichlorobenzyl Methylcarbamimidothioate Hydrobromide]

Antibiotic Activity Against P. aeruginosa: MIC with EPI (Enhancement) (P. aeruginosa PAO1 [1]): 1.0 µg/mL
MIC (P. aeruginosa PAO1 [2]; [6]): > 256 µg/mL
Antibiotic Activity Against E. coli: MIC with EPI (Enhancement) (E. coli 25922 [3]): >256 µg/mL
MIC (E. coli 25922 [4]; [7]): > 256 µg/mL
Compound: Br.N=C(N)SCc1ccc(Br)cc1 [Example 7, 4-Bromobenzyl Carbamimidothioate Hydrobromide]

Antibiotic Activity Against P. aeruginosa: MIC with EPI (Enhancement) (P. aeruginosa PAO1 [1]): 4 µg/mL
MIC (P. aeruginosa PAO1 [2]; [6]): 16 µg/mL
Antibiotic Activity Against E. coli: MIC with EPI (Enhancement) (E. coli 25922 [3]): >256 µg/mL
MIC (E. coli 25922 [4]; [7]): > 256 µg/mL
Compound: N=C(N)SCc1ccc2occc2c1 [Example 15, benzofuran-5-ylmethyl Carbamimidothioate Hydrobromide]

Reference: patent publication US20190031624A1, “THERAPEUTIC COMPOUNDS AND METHODS TO TREAT INFECTION” (priority 2017, published 2019)
